The values that follow come from patent US10888519B2, “Immediate release pharmaceutical composition of iron chelating agents” (Jubilant Generics Limited, priority 2016, dated 2021).

A short description of series [1]: Bulk density, tapped density and flow properties (Hausner Ratio, Compressibility Index). Format: physicochemical. The note with it: for Hausner Ratio: tapped density / bulk density. How it is done:
The composition of present invention were analyzed for bulk and tapped density and flow properties such as Hausner Ratio, Compressibility Index. Bulk Density and Tapped Density is determined using the standard method of Test 616 (Bulk Density and Tapped Density) of USP 32. The Hausner ratio may be calculated using formula ptap/pbulk where ptap represents tapped density of granulate mass and pbulk represents the loose bulk density of granulate mass. A Hausner ratio of <1.25 indicates a powder that is free flowing whereas >1.25 indicates poor flowability. Compressibility index is indirect measure of the flowability of the powder and it is determined according to US Pharmacopeia General Chapter <1174>. The smaller the compressibility index the better the flow properties. For example 5-15 indicates excellent, 12-16 good, 18-21 fair and >23 poor flow.

For series [2] the following is noted: cited from earlier work.
Where [3] appears, read: listed as Active Pharmaceutical Ingredient.

In the case of `O=C(O)c1ccc(-n2nc(-c3ccccc3O)nc2-c2ccccc2O)cc1` [Deferasirox, 4-[3,5-bis(2-hydroxyphenyl)-1H-1,2,4-triazol-1-yl]benzoic acid], the “Tapped Density” value in series [1] is 0.300 g/mL. Moreover, the bulk density entry in series [1] (API prior to granulation versus composition) was “about 0.185 g/mL”; in series [1] (Table 4) it was 0.185 g/mL. For the same compound, the results for the “Compressibility Index (%)” value in series [1] (listed as API) and in series [1] (setting [3]) were “about 38.33%” and 38.33% (Very Poor), respectively. In addition, the “Hausner Ratio” value in series [1] (listed as API) is “about 1.62”; in series [1] (setting [3]) it was 1.62 (Very Poor). Also, the solubility in water entry in series [2] is listed as “poorly soluble in water”.
